Data: patent US8389002B2, “Anti-cancer medicine both for diagnosing and treating cancer” (Youl Chon Chemical Co., Ltd., priority 2007, dated 2013)

Key:
[1] = Pharmacokinetics: change in blood plasma concentration as time goes by; conditions: male, Sprague-Dawley, rat, iv, 10 mg/kg
Procedure: The Sprague Dawley (SD) adult male rat was slightly anesthetized with ketamine and acepromazine. Then, the femoral vein was subject to cannulation with physiological salt solution and the artery was subject to cannulation with polyethylene tubing (PE-50, intramedic, Clay-Adams) in which the physiological salt solution of 40 I.U./mL was filled, for which the heparin treatment was performed. […] At 0 (blank), 1, 5, 15, 30, 60 and 120 minutes after the administration, the blood 0.3 mL was respectively sampled, which was then centrifugally separated (13,000 rpm, 3 minutes) to separate about 0.1 mL of the blood plasma. Then, it was deproteinated and then analyzed with HPLC.
It was used the HPLC method using a reverse phase C-18 column (Shim-pack CLS-ODS, 4.6 mm I.D. 250 mm L., […] particle diameter). To the sampled blood plasma 0.1 mL were applied an internal standard material solution 50 μL ([…] daunomycin), the methanol 100 μL and the ethyl acetate 1.0 mL. The mixture solution was subject to vortexing for 3 minutes and centrifugally separated for 3 minutes (3,000 rpm) to take the organic layer only (1.0 mL), which was then dried with speed-vac. The remnants were re-composed into a moveable phase of 300 μL and 100 μL of which was then directly injected to a HPLC system. As the moveable phase of the HPLC system, a solution of the deionized water (pH=2.5 by phosphoric acid):acetonitrile=6:4 was used and a flow rate was 1 mL/min. As a HPLC detection method, a fluorescent analysis method was used at 470 nm excitation wavelength and 565 nm emission wavelength. The doxorubicin standard solution for making a calibration curve was made by dissolving it in the methanol so that it became 0.05, 0.1, 0.5, 1 and 3 μg/mL. When preparing a biological sample calibration curve, the standard solution 100 μL of doxorubicin 0.05, 0.1, 0.5, 1 and 3 μg/mL was put instead of methanol 100 μL for pre-treatment. Then, a calibration curve was made from which the doxorubicin in the blood plasma was obtained.

hepatoma = assay: Tumor growth after administration in hepatoma model rat (MRI); type: in vivo; conditions: hepatoma SD-rat, 2 mg/kg tail vein, three times every 5 days, one week after last injection
Procedure: In order to make a hepatoma model, the water in which diethyl nitrosamine was diluted in a ratio of 1:10,000 was supplied to 8 weeks old SD-rat every day for 12 weeks until the tumor was generated. […] It was checked with MRI whether the tumor was after 10 weeks breeding. […] Again, the MRI photographing was made. The phleboclysis was performed three times every 5 days. Then, at one week after the last phleboclysis, the sizes of the tumors were compared through the MRI photographing.

clearance ([1]; in vivo): 37.9 ± 15.8 mL/min/kg
half-life ([1]; in vivo): 51.6 ± 34 min
AUC [1]: 4850 ng·h/mL
SMILES: COc1cccc2c1C(=O)c1c(O)c3c(c(O)c1C2=O)C[C@@](O)(C(=O)CO)C[C@@H]3O[C@H]1C[C@H](N)[C@H](O)[C@H](C)O1 [FD, doxorubicin]
size of the tumor in MRI photograph (hepatoma): became larger
